Where “and” joins values, the source holds several entries; their conditions need not be identical. Identical values can stand only once.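 48-hour exposure; five concentrations; linearly interpolated endpoints. GI50 marks 50% less growth. TGI is the concentration that stops growth completely.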
Columns and labels:
Test in all cases: DTP human tumour cell line panel, 48 h
HCC-2998 colon = test system: HCC-2998 colon
UACC-257 melanoma = test system: UACC-257 melanoma
HOP-62 NSCLC = test system: HOP-62 NSCLC
OVCAR-4 ovarian = test system: OVCAR-4 ovarian
A549 NSCLC = test system: A549 NSCLC
SK-MEL-5 melanoma = test system: SK-MEL-5 melanoma
M14 melanoma = test system: M14 melanoma
SK-MEL-2 melanoma = test system: SK-MEL-2 melanoma
SF-539 CNS = test system: SF-539 CNS
ACHN renal = test system: ACHN renal

## COC12CCC(C(C(=O)c3ccccc3)=C1C(=O)c1ccccc1)C(O)C2 (configuration not stated)
HCC-2998 colon
  TGI: > 100 µM
UACC-257 melanoma
  TGI: > 100 µM
HOP-62 NSCLC
  TGI: > 100 µM
OVCAR-4 ovarian
  TGI: > 100 µM
A549 NSCLC
  TGI: > 100 µM
SK-MEL-5 melanoma
  TGI: > 100 µM
M14 melanoma
  TGI: > 100 µM
SK-MEL-2 melanoma
  TGI: > 100 µM
SF-539 CNS
  TGI: > 100 µM

## CCNNC(=O)[C@@H]1[C@H](c2cc(OC)c(OC)c(OC)c2)c2cc3c(cc2[C@H](O)[C@H]1CO)OCO3
HCC-2998 colon
  GI50: 0.374 µM
  TGI: > 22.2 µM
UACC-257 melanoma
  GI50: 4.37 µM
ACHN renal
  GI50: 0.755 µM
  TGI: > 100 µM
HOP-62 NSCLC
  GI50: 0.561 µM
  TGI: > 100 µM
OVCAR-4 ovarian
  GI50: 2.37 µM
  TGI: > 100 µM
A549 NSCLC
  GI50: 0.376 µM
  TGI: > 100 µM
SK-MEL-5 melanoma
  GI50: 0.236 µM
  TGI: 0.635 µM
M14 melanoma
  GI50: 0.369 µM
  TGI: > 100 µM
SK-MEL-2 melanoma
  GI50: 0.614 µM
  TGI: > 100 µM
SF-539 CNS
  GI50: 0.294 µM
  TGI: 0.802 µM

## Cc1cc(N(CCCNc2ccnc3cc(Cl)ccc23)Cc2ccc3c(c2)OCO3)nc(N2CCCCC2)n1
HCC-2998 colon
  GI50: 2.09 µM
  TGI: 4.79 µM
UACC-257 melanoma
  GI50: 2.2 µM
  TGI: 4.22 µM
ACHN renal
  GI50: 2.32 µM
  TGI: 4.84 µM
HOP-62 NSCLC
  GI50: 1.74 µM
  TGI: 5.17 µM
OVCAR-4 ovarian
  GI50: 1.93 µM
  TGI: 6.45 µM
A549 NSCLC
  GI50: 2.62 µM
  TGI: 7.37 µM
SK-MEL-5 melanoma
  GI50: 1.75 µM
  TGI: 3.14 µM
M14 melanoma
  GI50: 1.77 µM
  TGI: 3.47 µM
SK-MEL-2 melanoma
  GI50: 1.94 µM
  TGI: 3.77 µM
SF-539 CNS
  GI50: 1.82 µM
  TGI: 3.36 µM

## Cn1cnc2c(F)c(Nc3ccc(Br)cc3F)c(C(=O)NOCCO)cc21
HCC-2998 colon
  GI50: 0.0162 µM and 0.034 µM
  TGI: 4.51 µM
UACC-257 melanoma
  GI50: 0.0224 µM and 0.024 µM
  TGI: 0.253 µM and 0.148 µM
ACHN renal
  GI50: 10.5 µM
  TGI: > 100 µM
HOP-62 NSCLC
  TGI: > 100 µM
OVCAR-4 ovarian
  GI50: 8.06 µM
  TGI: > 100 µM
A549 NSCLC
  GI50: 5.87 µM
  TGI: > 100 µM
SK-MEL-5 melanoma
  GI50: 0.787 µM and 0.414 µM
  TGI: > 100 µM
M14 melanoma
  GI50: 0.0175 µM and 0.0233 µM
  TGI: 0.307 µM
SK-MEL-2 melanoma
  GI50: 0.0296 µM and 0.0113 µM
  TGI: 0.448 µM and 0.0766 µM
SF-539 CNS
  GI50: > 3.24 µM and 21.5 µM
  TGI: > 100 µM

## CN1C[C@@H]2Cn3c(c(C4=C(c5cn(C)c6ccccc56)C(=O)NC4=O)c4ccccc43)C[C@H]2C1
HCC-2998 colon
  GI50: 4.59 µM and 4.4 µM
  TGI: 8.71 µM and 9.65 µM
UACC-257 melanoma
  GI50: 4.03 µM and 3.93 µM
  TGI: 8.01 µM and 7.6 µM
ACHN renal
  GI50: 4.16 µM and 3.51 µM
  TGI: 12.6 µM and 8.98 µM
HOP-62 NSCLC
  GI50: 4.29 µM and 4.01 µM
  TGI: 9.32 µM and 8.42 µM
OVCAR-4 ovarian
  GI50: 3.36 µM and 3.48 µM
  TGI: 9.12 µM and 8.91 µM
A549 NSCLC
  GI50: 4.4 µM and 3.51 µM
  TGI: 10.5 µM and 8.75 µM
SK-MEL-5 melanoma
  GI50: 4.17 µM and 3.68 µM
  TGI: 8.01 µM and 7.28 µM
M14 melanoma
  GI50: 4.07 µM and 3.96 µM
  TGI: 8.24 µM and 7.83 µM
SK-MEL-2 melanoma
  GI50: 4.52 µM and 3.91 µM
  TGI: 8.92 µM and 7.75 µM
SF-539 CNS
  GI50: 3.97 µM and 3.57 µM
  TGI: 7.83 µM and 7.12 µM

## CC(C)C(=O)[O-].CC(C)C(=O)[O-].N.N.N.N.[Co+3].[O-][Cl+3]([O-])([O-])[O-]
HCC-2998 colon
  GI50: > 100 µM
  TGI: > 100 µM
UACC-257 melanoma
  GI50: > 100 µM
  TGI: > 100 µM
ACHN renal
  GI50: > 100 µM
  TGI: > 100 µM
HOP-62 NSCLC
  GI50: > 100 µM
  TGI: > 100 µM
OVCAR-4 ovarian
  GI50: > 100 µM
  TGI: > 100 µM
A549 NSCLC
  GI50: > 100 µM
  TGI: > 100 µM
SK-MEL-5 melanoma
  GI50: > 100 µM
  TGI: > 100 µM
M14 melanoma
  GI50: > 100 µM
  TGI: > 100 µM
SK-MEL-2 melanoma
  GI50: > 100 µM
  TGI: > 100 µM
SF-539 CNS
  GI50: > 100 µM
  TGI: > 100 µM

## O=C(N/C(=C\c1ccc(/C=C(\NC(=O)c2ccccc2)c2nc3ccccc3s2)cc1)c1nc2ccccc2s1)c1ccccc1
HCC-2998 colon
  TGI: 27.8 µM
UACC-257 melanoma
  TGI: 17 µM
ACHN renal
  TGI: 16.7 µM
HOP-62 NSCLC
  TGI: 32.3 µM
OVCAR-4 ovarian
  TGI: 19.6 µM
A549 NSCLC
  TGI: 35.2 µM
SK-MEL-5 melanoma
  TGI: 17.8 µM
M14 melanoma
  TGI: 11.9 µM
SK-MEL-2 melanoma
  TGI: 19.2 µM
SF-539 CNS
  TGI: 4.61 µM

## Cc1ccc(Nc2cc(C)nc(NCCCNc3ccnc4cc(Cl)ccc34)n2)cc1
HCC-2998 colon
  GI50: 1.38 µM
  TGI: 2.8 µM
UACC-257 melanoma
  GI50: 1.74 µM
  TGI: 3.22 µM
ACHN renal
  GI50: 1.54 µM
  TGI: 2.91 µM
HOP-62 NSCLC
  GI50: 1.38 µM
  TGI: 2.78 µM
OVCAR-4 ovarian
  GI50: 1.24 µM
  TGI: 2.82 µM
A549 NSCLC
  GI50: 1.65 µM
  TGI: 3.41 µM
SK-MEL-5 melanoma
  GI50: 1.4 µM
  TGI: 2.71 µM
M14 melanoma
  GI50: 1.56 µM
  TGI: 3.33 µM
SK-MEL-2 melanoma
  GI50: 1.83 µM
  TGI: 3.34 µM
SF-539 CNS
  GI50: 1.59 µM
  TGI: 3.05 µM

## O=C(N/N=C/c1ccc(Cl)cc1Cl)c1ccc2nc(-c3ccc(Cl)cc3)[nH]c2c1
HCC-2998 colon
  GI50: 1.82 µM
  TGI: 3.44 µM
UACC-257 melanoma
  GI50: 2.14 µM
  TGI: 4.72 µM
ACHN renal
  GI50: 1.74 µM
  TGI: 3.17 µM
HOP-62 NSCLC
  GI50: 1.8 µM
  TGI: 4.1 µM
OVCAR-4 ovarian
  GI50: 1.74 µM
  TGI: 3.29 µM
A549 NSCLC
  GI50: 2.16 µM
  TGI: 4.53 µM
SK-MEL-5 melanoma
  GI50: 1.81 µM
  TGI: 3.39 µM
M14 melanoma
  GI50: 1.65 µM
  TGI: 3.84 µM
SK-MEL-2 melanoma
  GI50: 2.09 µM
  TGI: 4.64 µM
SF-539 CNS
  GI50: 1.7 µM
  TGI: 3.17 µM

## COc1cc2c3c(n(CCCBr)c(=O)c2cc1OC)-c1ccc(F)cc1C3=O
HCC-2998 colon
  GI50: 13.7 µM
  TGI: > 100 µM
UACC-257 melanoma
  GI50: 76.4 µM
  TGI: > 100 µM
ACHN renal
  GI50: 4.47 µM
  TGI: 36.3 µM
HOP-62 NSCLC
  GI50: 4.21 µM
  TGI: 25 µM
OVCAR-4 ovarian
  GI50: 40 µM
  TGI: > 100 µM
A549 NSCLC
  GI50: 36.8 µM
  TGI: > 100 µM
SK-MEL-5 melanoma
  GI50: 10.9 µM
  TGI: 24.1 µM
M14 melanoma
  GI50: 8.92 µM
  TGI: > 100 µM
SK-MEL-2 melanoma
  GI50: 23 µM
  TGI: 80.6 µM
SF-539 CNS
  GI50: 3.54 µM
  TGI: 15.2 µM

## CC(C)CC12CC3CCC(CNC1=O)C32C (configuration not stated)
HCC-2998 colon
  TGI: > 100 µM
UACC-257 melanoma
  TGI: > 100 µM
ACHN renal
  TGI: > 100 µM
HOP-62 NSCLC
  TGI: > 100 µM
OVCAR-4 ovarian
  TGI: > 100 µM
A549 NSCLC
  TGI: > 100 µM
SK-MEL-5 melanoma
  TGI: > 100 µM
M14 melanoma
  TGI: > 100 µM
SK-MEL-2 melanoma
  TGI: > 100 µM
SF-539 CNS
  TGI: > 100 µM

## COC(=O)[C@H](C)NC(=O)[C@@H](OC)[C@@H]1Cc2cc3cc(OC4CC(OC5CC(O)C(O)C(C)O5)C(O)C(C)O4)c(C)c(O)c3c(O)c2C(=O)[C@H]1OC1CC(OC2CC(OC3CC(C)(O)C(O)C(C)O3)C(O)C(C)O2)C(O)C(C)O1 (some centres not stated)
HCC-2998 colon
  GI50: 0.16 µM
  TGI: 2.08 µM
UACC-257 melanoma
  GI50: 0.052 µM
  TGI: 0.846 µM
ACHN renal
  GI50: 0.119 µM
  TGI: 2.23 µM
HOP-62 NSCLC
  GI50: 0.0774 µM
  TGI: > 50 µM
OVCAR-4 ovarian
  GI50: 0.163 µM
  TGI: 3.43 µM
A549 NSCLC
  GI50: 0.195 µM
  TGI: > 50 µM
SK-MEL-5 melanoma
  GI50: 0.0358 µM
  TGI: 0.355 µM
M14 melanoma
  GI50: 0.113 µM
  TGI: 1.41 µM
SK-MEL-2 melanoma
  GI50: 0.0908 µM
  TGI: 0.588 µM
SF-539 CNS
  GI50: 0.0478 µM
  TGI: 2.62 µM

## CS/C(c1ccccc1)=[N+](\[O-])Cc1ccccc1
HCC-2998 colon
  TGI: > 100 µM
UACC-257 melanoma
  TGI: > 100 µM
ACHN renal
  TGI: > 100 µM
HOP-62 NSCLC
  TGI: > 100 µM
OVCAR-4 ovarian
  TGI: > 100 µM
A549 NSCLC
  TGI: > 100 µM
SK-MEL-5 melanoma
  TGI: > 100 µM
M14 melanoma
  TGI: > 100 µM
SK-MEL-2 melanoma
  TGI: > 100 µM
SF-539 CNS
  TGI: > 100 µM

From PubChem BioAssay (NCI)
